From patent US12605380B2, “Methods of improving lung function” (Endeavor BioMedicines, Inc., priority 2024, dated 2026)

Experiments:
Type in all cases: in vivo, human
[1] = tested on: subjects with Idiopathic Pulmonary Fibrosis (IPF); experiment: Phase 2a study in IPF subjects: lung function by forced vital capacity (FVC, ppFVC)
Procedure: Study Design. Eligible subjects with mild to moderate IPF were randomized to receive placebo or ENV-101 as a daily oral dose for 12 consecutive weeks of treatment. […] Subjects participated in a Screening Visit, a Day 1 randomization visit, a telephone visit at Week 1, visits at Week 6 and Week 12 during the treatment period and a follow-up visit at Week 18. All subjects were randomized to receive either placebo or 200 mg of taladegib (ENV-101). During the treatment period, if a subject experienced an adverse event that is related to the study medication, the dose of the study drug was permitted to be modified based on the type of adverse event observed and after consultation with the Sponsor and Medical Monitor. A study subject was considered to have completed the study if he or she completed all study visits including the last visit or the last scheduled procedure shown in the Schedule of Activities (SoA). • 1. Males and females greater than 40 years of age. • 2. Idiopathic Pulmonary Fibrosis diagnosis based upon […], Japanese Respiratory Society, European Respiratory Society, Latin […] guidelines within the last 7 years. Diagnosis will be confirmed to be consistent with IPF by centrally read high resolution computed tomography (HRCT) obtained at the Screening Visit or previous HRCT scan performed within 30 days of the Screening Visit may be used. • 3. Ability to successfully perform lung function tests. • 4. Percent predicted forced vital capacity (FVC) of >50% at the Screening Visit. • 5. […] Evidence of other known causes of interstitial lung disease (ILD) (e.g., domestic and occupational environmental exposures, connective-tissue disease [CTD], and drug toxicity), lung transplant expected within 12 months of screening or evidence of clinically significant lung disease other than IPF including but not limited to asthma, chronic obstructive pulmonary disease (COPD), uncontrolled pulmonary hypertension and emphysema where computed tomography (CT)-assessed extent of emphysema is greater than extent of fibrosis. • 2. […]

[2] = tested on: subjects with Idiopathic Pulmonary Fibrosis (IPF); experiment: Phase 2a study in IPF subjects: quantitative HRCT measurements (TLC, % QILD, % QLF, % QGG)
Procedure: (§1) Study Design. Eligible subjects with mild to moderate IPF were randomized to receive placebo or ENV-101 as a daily oral dose for 12 consecutive weeks of treatment. […] Subjects participated in a Screening Visit, a Day 1 randomization visit, a telephone visit at Week 1, visits at Week 6 and Week 12 during the treatment period and a follow-up visit at Week 18. All subjects were randomized to receive either placebo or 200 mg of taladegib (ENV-101). During the treatment period, if a subject experienced an adverse event that is related to the study medication, the dose of the study drug was permitted to be modified based on the type of adverse event observed and after consultation with the Sponsor and Medical Monitor. A study subject was considered to have completed the study if he or she completed all study visits including the last visit or the last scheduled procedure shown in the Schedule of Activities (SoA). [table] The dosing regimen evaluated in this study was ENV-101 or placebo administered daily. The dose of ENV-101 studied was 200 mg. Subjects randomized to ENV-101 took two 100 mg tablets daily for the 200 mg dose, while subjects randomized to placebo took two placebo tablets daily. Subjects took both tablets at the same time, and it was recommended that subjects take the dose at the same time each day, ideally in the morning prior to eating. If a subject experienced nausea or other gastrointestinal symptoms, it was recommended that the subject take the dose with a low-fat meal or prior to bedtime.

[3] = tested on: subjects with Idiopathic Pulmonary Fibrosis (IPF); experiment: Post-hoc analysis of HRCT images with Qureight deep learning models (Lung8, Vascul8, Fibr8)
From the text: A post-hoc analysis utilizing deep learning models developed by Qureight (using machine learning methodologies such as 3D convolutional neural networks), were employed to quantify lung volume (Lung8), vessel volume (Vascul8), fibrosis extent (Fibr8) and airway volume (Air8) from High Resolution Computed Tomography images. Deep learning-based CT biomarkers provide an alternate, non-invasive way to predict disease progression and/or assess treatment effects in antifibrotic clinical trials. 34 patients with baseline and week 12 HRCTs were available for model analysis. Of the 34 patients, 18 patients received placebo, and 16 received ENV-101. Group comparisons were performed with an independent t-test, and linear regression assessed variable relationships. Effect sizes were calculated using Hedges' G to account for sample size bias. A p-value<0.05 was considered significant.

[4] = tested on: subjects with Idiopathic Pulmonary Fibrosis (IPF); experiment: Phase 2a study in IPF subjects: patient reported outcome, UCSD Shortness of Breath Questionnaire (SOBQ); conditions: 200 mg once a day, vs placebo, not statistically significant
Procedure: as §1, with “If a subject experienced nausea or other gastrointestinal symptoms, it was recommended that the subject take the dose with a low-fat meal or prior to bedtime.” left out

[5] = week 12, ENV-101 vs placebo, Hedges' G

## CN(C(=O)c1ccc(F)cc1C(F)(F)F)C1CCN(c2nnc(-c3ccnn3C)c3ccccc23)CC1 [taladegib]
[1]; IPF subjects, 200 mg QD, at 6 weeks (n=16)
  mean change from baseline of percent predicted forced vital capacity (ppFVC): 1.7%
[1]; post-hoc analysis, ENV-101 vs placebo, Hedges' G
  effect size, % predicted FVC: 0.78
[1]; post-hoc analysis, patients with baseline and week 12 HRCT, p=0.03
  % predicted FVC compared to placebo: significant improvement
[2]; 200 mg once a day for 12 weeks
  change from baseline in percent quantitative ground glass opacity (% QGG): about −4.6%
  change from baseline in percent quantitative interstitial lung disease (% QILD): about −9%
  change from baseline in percent quantitative lung fibrosis (% QLF): about −2%
[2]; 200 mg once a day for 12 weeks, p=0.005
  increase in total lung capacity (TLC): about 200 mL
[2]; 200 mg once a day, over the three month treatment period
  increase in total lung capacity (TLC), percent: about 8%
[3]; treated over 12 weeks
  fibrosis (conclusion in words): reduced
  lung volume (conclusion in words): significantly improved
  pulmonary vascular volume (conclusion in words): significantly reduced
[3]; week 12, 16 patients on ENV-101, p=0.0007 vs placebo
  Change in Pulmonary vascular volume (normalised to lung volume): −0.25%
[3]; week 12, 16 patients on ENV-101, p=0.014 vs placebo
  Lung volume change (total lung volume, Lung8): 142.28 mL
[3]; week 12, 16 patients on ENV-101, p=0.063 vs placebo
  Change in Fibrosis (extent, normalised to lung volume): −1.32%
[3]; [5]
  effect size, change in pulmonary vascular volume: −1.28
  effect size, lung volume change: 0.87
[4]
  mean change from baseline of responses to the UCSD Shortness of Breath Questionnaire (SOBQ): improvement
